According to patent publication US6350747B1, “3-(anilinomethylene) oxindoles” (Glaxo Wellcome Inc., priority 1999, dated 2002):
Where two headings read alike, the source gives them in different places.

What was measured:
[1] = target: T1, VEGFR-2 (Homo sapiens, UniProt P35968); assay: VEGFR-2 substrate phosphorylation assay; type: biochemical
T1 construct: The kinase domain of the enzyme was purified to homogeneity from a baculovirus expression system; made in house

[2] = target: T2, Tie-2 (Homo sapiens, UniProt Q02763); assay: Tie-2 substrate phosphorylation assay; type: biochemical
T2 construct: The kinase domain of the enzyme was purified to homogeneity from a baculovirus expression system; made in house

[3] = test system: HUVEC cells; assay: HUVEC BrdU incorporation, VEGF stimulation; type: cell-based; settings: Homo sapiens, 20 ng/ml VEGF, 72 hrs, read-out: Inhibition of BrdU incorporation in HUVEC cells, VEGF stimulation, IC50
[4] = test system: HUVEC cells; assay: HUVEC BrdU incorporation, bFGF stimulation; type: cell-based; settings: Homo sapiens, 0.3 ng/ml bFGF, 72 hrs, read-out: Inhibition of BrdU incorporation in HUVEC cells, BFGF Stimulation, IC50
[5] = target: T3, CDK2 (Homo sapiens, UniProt P24941); assay: CDK2 cyclin dependent protein kinase assay; type: biochemical; settings: read-out: CDK2 kinase inhibition IC50
T3 construct: made in house
Experimental: Cyclin dependent protein kinase assays utilized the peptides Biotin-aminohexyl-[…] and Biotin-aminohexyl-[…]-NH2 as phosphoryl group acceptors. CDK1 and CDK2 were both expressed utilizing a baculovirus expression system and were partially purified to comprise 20-80% of total protein, with no detectable competing reactions present. Typically, assays were performed by incubating either enzyme (0.2-10 nM), with and without inhibitor, one of the two peptide substrates ([…]), [γ-^32P]ATP ([…]), and 10-20 mM Mg^2+ for periods of time generally within the range 10-120 min. Reactions were terminated with 0.2-2 volumes of either 20% acetic acid or 50-100 mM EDTA buffered to pH 7 (substrate consumption<20%). The buffer employed in enzyme assays was either 30 mM HEPES 7.4 containing 0.15 M NaCl and 5% DMSO, the buffer 50 mM MOPS 7.0 containing 0.15 M NaCl and 5% DMSO, or the buffer 100 mM HEPES pH 7.5 containing 0.1 mg/mL BSA and 5% DMSO. Inhibitors were diluted in 100% DMSO prior to addition into the assay. Detection of peptide phosphorylation was accomplished by scintillation counting following either collection of peptide onto phosphocellulose filters (for reactions stopped with acetic acid), collection of peptide in wells of 96 well plates coated with Streptavidin (Pierce) (reactions were stopped with EDTA), or addition of Avidin coated Scintillant impregnated beads (Scintillation Proximity Assays from Amersham, reactions were stopped with EDTA).

[6] = target: T4, c-fms (Homo sapiens, UniProt P07333); assay: c-fms protein kinase assay; type: biochemical; settings: read-out: c-fms kinase inhibition IC50
T4 construct: The c-fms intracellular domain was expressed from a baculovirus expression system, as an amino-terminal GST fusion protein; GST (N); made in house
T4 sequence (P07333 539-972 limits assumed): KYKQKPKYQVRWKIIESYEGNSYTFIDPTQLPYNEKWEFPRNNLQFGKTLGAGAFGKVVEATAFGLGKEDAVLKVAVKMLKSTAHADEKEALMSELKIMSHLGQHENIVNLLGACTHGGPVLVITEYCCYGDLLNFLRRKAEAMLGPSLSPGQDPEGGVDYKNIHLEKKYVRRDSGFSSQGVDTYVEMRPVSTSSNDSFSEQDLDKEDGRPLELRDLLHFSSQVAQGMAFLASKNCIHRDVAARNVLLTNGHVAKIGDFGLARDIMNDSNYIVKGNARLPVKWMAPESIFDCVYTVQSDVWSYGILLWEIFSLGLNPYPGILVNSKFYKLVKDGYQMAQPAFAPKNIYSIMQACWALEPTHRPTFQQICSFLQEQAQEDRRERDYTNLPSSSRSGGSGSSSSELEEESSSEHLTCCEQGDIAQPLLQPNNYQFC
Experimental: c-fms protein kinase assays utilized the peptide substrate, biotin-EAl[…]-NH2, as the phosphoryl group acceptor. The c-fms intracellular domain was expressed from a baculovirus expression system, as an amino-terminal GST fusion protein, and purified to homogeneity using Glutathione agarose from Sigma Chemical Co. Maximum activation of the enzyme was achieved by preactivation at room temperature for 120 min in the presence of 100 μM ATP and 15 mM MgCl2. This enzyme stock was diluted to 150 nM prior to using in the assay. Typically assays were performed in white, opaque, 96-well plates in a 45 ul assay volume including 15 ul 6% DMSO, with or without compounds, 15 ul of the preactivated, diluted enzyme, and 15 ul of a substrate mixture. Reactions contained 50 mM HEPES, pH 7.5, 1.7 μM ATP, 15 mM MgCl2, […] peptide, 2.5 μM DTT, 50 mM NaCl and 0.15 uCi/assay [^32P]ATP. The controls were reactions in the presence (negative controls) or absence (positive controls) of 50 mM EDTA. Reactions were allowed to proceed for 90 min at room temperature. The reaction products were quantified using Scintillation Proximity technolgy. The reactions were quenched by the addition of 200 ul of a solution containing 0.3 mg streptavidin SPA beads from Amersham, 50 mM EDTA, 0.1% TX-100, 50 uM ATP, in PBS, pH7.2 (phosphate buffered solution). Plates were sealed and counted in a Packard Topcount scintillation counter. IC50 values were obtained by fitting raw data to the equation y=Vmax*(1−(x/(k+x))).

[7] = read-out: VEGFR2 kinase inhibition IC50
[8] = read-out: Tie-2 kinase inhibition IC50

T1 sequence (P35968 834-1162 limits assumed, species assumed): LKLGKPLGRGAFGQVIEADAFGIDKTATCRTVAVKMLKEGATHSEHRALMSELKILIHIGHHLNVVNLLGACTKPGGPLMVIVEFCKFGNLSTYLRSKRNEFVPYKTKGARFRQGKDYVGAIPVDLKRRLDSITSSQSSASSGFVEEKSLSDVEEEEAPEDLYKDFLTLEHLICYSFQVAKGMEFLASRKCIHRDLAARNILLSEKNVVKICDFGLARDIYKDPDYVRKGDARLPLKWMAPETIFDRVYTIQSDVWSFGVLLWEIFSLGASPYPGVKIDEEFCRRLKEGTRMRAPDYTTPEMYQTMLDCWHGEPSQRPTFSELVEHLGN
T2 sequence (Q02763 824-1096 limits assumed, species assumed): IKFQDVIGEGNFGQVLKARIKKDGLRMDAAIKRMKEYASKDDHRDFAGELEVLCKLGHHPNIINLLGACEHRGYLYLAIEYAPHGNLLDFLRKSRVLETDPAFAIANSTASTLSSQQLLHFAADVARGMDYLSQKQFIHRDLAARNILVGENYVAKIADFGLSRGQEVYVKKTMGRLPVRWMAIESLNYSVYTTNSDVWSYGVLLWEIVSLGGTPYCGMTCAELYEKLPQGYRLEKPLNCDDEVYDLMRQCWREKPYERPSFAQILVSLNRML

| IC50 [1, 7] [nM] | IC50 [2, 8] [nM] | IC50 [5] [nM] | IC50 [6] [nM] | Compound | IC50 [3] [nM] | IC50 [4] [nM] | IC50 [1] [nM] | IC50 [2] [nM] |
| --- | --- | --- | --- | --- | --- | --- | --- | --- |
| 1 to 10 | > 100 |  |  | CCC1(c2ccc(N/C=C3\C(=O)Nc4ccc5ncccc5c43)cc2)CCC(=O)NC1=O (stereo not drawn) [Example 63, 3-Ethyl-3-(4-{(Z)-[(2-oxo-2,3dihydro-1H-pyrrolo[3,2-f]quinolin-1-ylidene)methyl]amino}phenyl)-2,6-piperidinedione] | 10 to 500 | 600 to 1000 |  |  |
| 1 to 10 | > 100 | 11 to 50 | > 100 | Cc1cc(=O)[nH]n1-c1ccc(N/C=C2\C(=O)Nc3ccc4ncsc4c32)cc1 [Example 55, 8-{(Z)-[4-(5-Methyl-3-oxo-2,3-dihydro-1H-pyrazol-1-yl)anilino]methylidene}-6H-[1,3]thiazolo[5,4-e]indol-7-one] | 1100 to 5000 | > 5000 |  |  |
| 11 to 50 | > 100 | > 100 | > 100 | O=C1Nc2ccc3ncccc3c2/C1=C/Nc1ccc(N2CCOCC2)cc1 [Example 29, 1-{(Z)-[4-(4-Morpholinyl)anilino]methylidene}-1,3-dihydro-2H-pyrrolo[3,2-f]quinolin-2-one] | 10 to 500 | > 5000 |  |  |
| 11 to 50 | > 100 |  |  | CC(=O)N(C)c1ccc(N/C=C2\C(=O)Nc3ccc4ncsc4c32)cc1 [Example 58, N-Methyl-N-(4-{(Z)-[(7-oxo-6,7-dihydro-8H-[1,3]thiazolo[5,4-e]indol-8-ylidene)methyl]amino}phenyl)acetamide] | 10 to 500 | 1100 to 5000 |  |  |
| 1 to 10 | > 100 |  |  | Cc1cc(=O)[nH]n1-c1ccc(N/C=C2\C(=O)Nc3ccc4ncccc4c32)cc1 [Example 66, 1-{(Z)-[4-(5-Methyl-3-oxo-2,3-dihydro-1H-pyrazol-1-yl)anilino]methylidene}-1H-pyrrolo[3,2-f]quinolin-2(3H)-one] | 600 to 1000 | > 5000 |  |  |
| 11 to 50 | > 100 | 11 to 50 | > 100 | O=C1Nc2ccc3ncccc3c2/C1=C/Nc1ccc(Cc2ccncc2)cc1 [Example 30, 1-{(Z)-[4-(4-Pyridinylmethyl)anilino]methylidene}-1,3-dihydro-2H-pyrrolo[3,2-f]quinolin-2-one] | 10 to 500 | 1100 to 5000 |  |  |
| 11 to 50 | > 100 |  |  | CCN(CC)CCS(=O)(=O)c1ccc(N/C=C2\C(=O)Nc3ccc4ncsc4c32)cc1 [Example 71, 8-[(Z)-(4-{[2-(Diethylamino)ethyl]sulfonyl}anilino)methylidene]-6H-[1,3]thiazolo[5,4-e]indol-7-one] | 10 to 500 | 10 to 500 |  |  |
| 11 to 50 | > 100 | 51 to 100 |  | O=C1Nc2ccc3ncccc3c2/C1=C/Nc1ccc(CCO)cc1 [Example 32, 1-{(Z)-[4-(2-Hydroxyethyl)anilino]methylidene}-1,3-dihydro-2H-pyrrolo[3,2-f]quinolin-2-one] | 10 to 500 | 1100 to 5000 |  |  |
| 1 to 10 | > 100 |  | > 100 | CCC1(c2ccc(N/C=C3\C(=O)Nc4ccc5ncsc5c43)cc2)CCC(=O)NC1=O (stereo not drawn) [Example 48, 3-Ethyl-3-(4-{(Z)-[(7-oxo-6,7dihydro-8H-[1,3]thiazolo[5,4-e]indol-8-ylidene)methyl]amino}phenyl)-2,6-piperidinedione] | 10 to 500 | 600 to 1000 |  |  |
|  |  |  |  | CCN(CC)CCS(=O)(=O)c1ccc(N/C=C2\C(=O)Nc3ccc4ncccc4c32)cc1 [Example 72, 1-[(Z)-(4-{[2-(Diethylamino)ethyl]sulfonyl}anilino)methylidene]-1H-pyrrolo[3,2-f]quinolin-2(3H)-one] | 10 to 500 | 10 to 500 | 1 to 10 | > 100 |

| Compound | IC50 [1, 7] [nM] | IC50 [2, 8] [nM] | IC50 [5] [nM] | IC50 [6] [nM] | IC50 [3] [nM] | IC50 [4] [nM] | IC50 [1] [nM] | IC50 [2] [nM] |
| --- | --- | --- | --- | --- | --- | --- | --- | --- |
| NC(=O)c1ccc(N/C=C2\C(=O)Nc3ccc4ncsc4c32)cc1 [Example 24, 4-{[(Z)-(7-Oxo-6,7-dihydro-8H-[1,3]thiazolo[5,4-e]indol-8-ylidene)methyl]amino}benzamide] |  | > 100 | 51 to 100 | > 100 | 10 to 500 | > 5000 | 11 to 50 |  |
